Experimental data reported in the supplement of paper PMC10307832.

Tests used:
Experiment in all cases: relative viability (nuclei count vs DMSO), 5 days (fraction); higher = more cells survive
[1] = compound: c1ccc2c(CCNc3ccc(Nc4ccncc4)cc3)c[nH]c2c1 [Serdemetan] + Nc1nc2[nH]cc(CCc3ccc(C(=O)N[C@@H](CCC(=O)O)C(=O)O)cc3)c2c(=O)[nH]1 [Pemetrexed] (partner 0.2 µM)
Outline: (§1)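 Cells from lung cancer lines were seeded into 1536-well plates and, one day later, dosed by pin tool. Treatments were either a single drug or a fixed dose of an anchor drug with five library-drug doses (not always all listed) in √10 steps. After 5 days, nuclei were stained in a one-step fixation (final 0.05% Triton X-100, 1% formaldehyde, 1 ug/ml Hoechst) and counted on 4× images, and relative viability is the treated-to-vehicle nuclei ratio, as the median of duplicate plates.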

[2] = compound: c1ccc2c(CCNc3ccc(Nc4ccncc4)cc3)c[nH]c2c1 [Serdemetan] + CS(=O)(=O)N1CCN(Cc2cc3nc(-c4cccc5[nH]ncc45)nc(N4CCOCC4)c3s2)CC1 [Pictilisib] (partner 1 µM)
Outline: as §1

[3] = compound: C1CC(C2=C(C1)C3=C(N2)C=CC(=C3)Cl)C(=O)N [Selisistat] + CC(=O)c1c(C)c2cnc(Nc3ccc(N4CCNCC4)cn3)nc2n(C2CCCC2)c1=O [Palbociclib] (partner 0.5 µM)
Outline: as §1

[4] = compound: C1CC(C2=C(C1)C3=C(N2)C=CC(=C3)Cl)C(=O)N [Selisistat] + Cc1nc(NC(=O)N2CCC[C@H]2C(N)=O)sc1-c1ccnc(C(C)(C)C(F)(F)F)c1 [Alpelisib] (partner 2 µM)
Outline: as §1

Cell Line	relative viability ([1]; first compound 0.04 µM)	relative viability ([1]; first compound 0.1265 µM)	relative viability ([1]; first compound 0.4 µM)	relative viability ([1]; first compound 1.265 µM)	relative viability ([1]; first compound 4 µM)	relative viability ([2]; first compound 0.04 µM)	relative viability ([2]; first compound 0.4 µM)	relative viability ([2]; first compound 1.265 µM)	relative viability ([2]; first compound 4 µM)	relative viability ([3]; first compound 0.4 µM)	relative viability ([3]; first compound 1.265 µM)	relative viability ([3]; first compound 4 µM)	relative viability ([3]; first compound 12.65 µM)	relative viability ([3]; first compound 40 µM)	relative viability ([4]; first compound 0.4 µM)	relative viability ([4]; first compound 1.265 µM)	relative viability ([4]; first compound 4 µM)	relative viability ([4]; first compound 12.65 µM)	relative viability ([4]; first compound 40 µM)	relative viability ([2]; first compound 0.1265 µM)
NCI-H1734	0.44	0.396	0.405	0.171	0.14	0.466	0.354	0.163	0.242	0.366	0.37	0.353	0.379	0.369	0.744	0.621	0.697	0.739	0.706	–
HOP-62	0.293	0.368	0.307	0.333	0.365	0.821	0.782	0.604	0.657	0.43	0.43	0.508	0.424	0.619	0.796	1.02	1.06	0.944	1	0.798
LOU-NH91	0.394	0.383	–	–	0.419	0.519	–	0.433	0.496	0.594	0.526	0.585	0.519	0.552	0.71	0.681	0.619	0.71	0.723	0.484
NCI-H2228	0.349	0.364	0.325	0.312	0.253	0.322	0.327	0.257	0.214	0.797	0.726	0.802	0.795	0.801	0.721	0.687	0.587	0.691	0.647	0.26
PC-14	0.133	0.139	–	0.137	0.143	0.626	0.596	0.634	0.367	0.513	0.498	0.528	0.53	0.489	0.918	0.885	0.994	0.952	1.1	0.631
NCI-H1437	0.287	0.327	0.316	0.264	0.252	0.469	0.454	0.492	0.342	0.325	0.282	0.227	0.213	0.242	1.03	0.987	0.787	0.981	0.919	0.409
NCI-H460	0.0612	0.0565	0.0655	0.0326	0.064	0.339	0.27	0.287	0.253	0.163	0.149	0.137	0.15	0.113	0.517	0.54	–	0.403	0.35	0.366
NCI-H1666	0.795	0.87	0.786	–	0.675	0.412	0.525	0.531	0.465	0.658	0.613	0.642	0.659	0.611	1.06	0.978	0.946	0.847	0.748	0.413
NCI-H1651	0.582	0.388	0.505	0.443	0.323	0.434	0.433	0.456	0.23	0.508	0.532	0.499	0.474	0.517	0.945	0.905	0.944	0.894	1.01	0.496
NCI-H1755	0.575	0.4	0.539	0.512	0.418	0.428	0.455	0.307	0.296	0.457	0.465	0.428	0.485	0.439	1.03	0.958	0.94	0.956	0.935	0.458
NCI-H661	0.968	0.902	0.877	0.786	0.806	0.589	0.383	0.342	0.361	0.421	0.392	0.374	0.414	0.374	0.766	0.675	0.555	0.508	0.546	0.356
HARA	0.202	0.254	0.226	0.196	0.257	0.385	0.408	–	0.347	0.295	0.242	0.241	0.275	0.251	0.881	0.868	0.793	0.846	0.842	0.411
NCI-H23	0.649	0.789	0.722	–	0.763	0.536	0.459	0.439	0.543	0.57	0.51	–	0.538	0.441	0.811	0.871	–	0.662	0.688	0.571
LCLC-97TM1	0.147	0.196	0.188	0.153	0.197	0.214	0.183	0.143	0.124	0.234	0.256	–	0.214	0.249	0.233	0.229	0.278	0.275	0.219	0.22
EPLC-272H	0.316	0.367	0.342	0.269	0.374	0.365	0.293	0.27	0.33	0.343	0.323	–	0.334	0.368	1.02	0.853	–	0.977	0.885	0.348
NCI-H1915	0.52	0.517	0.493	0.491	0.489	0.966	0.921	0.811	0.985	0.612	0.515	0.466	0.554	0.587	1.08	1.03	1.09	1.05	1.04	1.01
NCI-H2405	1.04	1.02	1.1	0.609	0.983	0.457	0.491	0.42	0.41	0.534	0.536	–	0.578	0.502	0.769	–	–	0.834	0.845	0.403
